Measured values reported in ChEMBL document CHEMBL1201862, “PubChem BioAssay data set” (2004).
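Following 48 hours of exposure in 96-well plates, responses at five concentrations were used to interpolate endpoints linearly. Here, GI50 denotes the concentration required for 50% inhibition of growth.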 Activity calls are given as the source filed them. No stated cut-off is given here; in the data, active = GI50 up to about 1.1 µM and inactive = higher.

Legend:
Experiment in all cases: NCI-60 cell line screen, 48 h
Hs-578T = tested on: Hs-578T
MDA-MB-435 = tested on: MDA-MB-435
SR = tested on: SR
OVCAR-3 = tested on: OVCAR-3
CCRF-CEM = tested on: CCRF-CEM
KM12 = tested on: KM12
IGROV-1 = tested on: IGROV-1
A549 = tested on: A549
SF-539 = tested on: SF-539
OVCAR-5 = tested on: OVCAR-5
TK-10 = tested on: TK-10
OVCAR-4 = tested on: OVCAR-4
SK-OV-3 = tested on: SK-OV-3
SF-295 = tested on: SF-295
RPMI-8226 = tested on: RPMI-8226
HOP-92 = tested on: HOP-92
PC-3 = tested on: PC-3
CAKI-1 = tested on: CAKI-1
SNB-19 = tested on: SNB-19
SK-MEL-5 = tested on: SK-MEL-5

SMILES | GI50 (Hs-578T) | GI50 (MDA-MB-435) | GI50 (SR) | GI50 (OVCAR-3) | GI50 (CCRF-CEM) | GI50 (KM12) | GI50 (IGROV-1) | GI50 (A549) | GI50 (SF-539) | GI50 (OVCAR-5) | GI50 (TK-10) | GI50 (OVCAR-4) | GI50 (SK-OV-3) | GI50 (SF-295) | GI50 (RPMI-8226) | GI50 (HOP-92) | GI50 (PC-3) | GI50 (CAKI-1) | GI50 (SNB-19) | GI50 (SK-MEL-5)
Cc1c2oc3c(C)cc(F)c(C(=O)NC4C(=O)NC(C(C)C)C(=O)N5CCCC5C(=O)N(C)CC(=O)N(C)C(C(C)C)C(=O)OC4C)c3nc-2c(C(=O)NC2C(=O)NC(C(C)C)C(=O)N3CCCC3C(=O)N(C)CC(=O)N(C)C(C(C)C)C(=O)OC2C)c(N)c1=O (stereo not given) | 0.298 µM (active) | 0.00757 µM (active) | < 0.001 µM (active) | 0.0336 µM (active) | < 0.001 µM (active) | 0.00475 µM (active) | 0.00618 µM (active) | 0.0148 µM (active) | 0.0681 µM (active) | 0.214 µM (active) | 0.224 µM (active) | 0.711 µM (active) | 0.16 µM (active) | 0.00708 µM (active) | < 0.001 µM (active) | 0.154 µM (active) | 0.0179 µM (active) | 2.45 µM (inactive) | 0.00771 µM (active) | 0.0142 µM (active)
CCOC(=O)c1nc2ccccc2nc1NCc1ccc(Cl)cc1Cl | 65.6 µM (inactive) | 97.9 µM (inactive) | 60.7 µM (inactive) | > 100 µM (inactive) | > 100 µM (inactive) | > 100 µM (inactive) | > 100 µM (inactive) | > 100 µM (inactive) | > 100 µM (inactive) | > 100 µM (inactive) | > 100 µM (inactive) | > 100 µM (inactive) | > 100 µM (inactive) | > 100 µM (inactive) | > 100 µM (inactive) | > 100 µM (inactive) | > 100 µM (inactive) | > 100 µM (inactive) | > 100 µM (inactive) | > 100 µM (inactive)
O=C1Nc2ccccc2/C1=N/NC(=S)NCc1ccccn1 | 6.14 µM (inactive) | 0.931 µM (active) | < 0.01 µM (active) | < 0.01 µM (active) | < 0.01 µM (active) | 0.698 µM (active) | 0.0721 µM (active) | 0.466 µM (active) | 0.366 µM (active) | 10.5 µM (inactive) | 2.52 µM (inactive) | 1.33 µM (inactive) | 1.12 µM (inactive) | 0.507 µM (active) | < 0.01 µM (active) | 1.11 µM (active) | 0.0508 µM (active) | 0.0951 µM (active) | 0.678 µM (active) | 0.551 µM (active)
COC(=O)C(CCC(=O)CCl)N1C(=O)c2ccccc2C1=O (stereo not given) | 12.6 µM (inactive) | 10.1 µM (inactive) | 3.39 µM (inactive) | 11.6 µM (inactive) | 1.67 µM (inactive) | 20.2 µM (inactive) | 12.4 µM (inactive) | 17.7 µM (inactive) | 12.2 µM (inactive) | 15.9 µM (inactive) | 14.5 µM (inactive) | 14.8 µM (inactive) | 16 µM (inactive) | 17.7 µM (inactive) | 3.37 µM (inactive) | 5.78 µM (inactive) | 12.9 µM (inactive) | 15.2 µM (inactive) | 18.7 µM (inactive) | 4.95 µM (inactive)
Fc1cccc(F)c1C1SCc2nc3ccc(Cl)cc3n21 (stereo not given) | > 100 µM (inactive) | > 100 µM (inactive) | 48.4 µM (inactive) | > 100 µM (inactive) | > 100 µM (inactive) | 63 µM (inactive) | > 100 µM (inactive) | > 100 µM (inactive) | > 100 µM (inactive) | > 100 µM (inactive) | > 100 µM (inactive) | 85.3 µM (inactive) | > 100 µM (inactive) | > 100 µM (inactive) | 82.4 µM (inactive) | > 100 µM (inactive) | > 82.8 µM (inactive) | > 100 µM (inactive) | > 100 µM (inactive) | 85.3 µM (inactive)
Cc1cc(CN(Cc2ccccc2)Cc2nc3ccccc3[nH]2)c(O)c(CN(Cc2nc3ccccc3[nH]2)Cc2nc3ccccc3[nH]2)c1 | 15.6 µM (inactive) | 7.52 µM (inactive) | 2.6 µM (inactive) | 6.5 µM (inactive) | 2.81 µM (inactive) | 6.3 µM (inactive) | 5.04 µM (inactive) | 8.79 µM (inactive) | 2.92 µM (inactive) | 15.2 µM (inactive) | 4.71 µM (inactive) | 6.01 µM (inactive) | 5.55 µM (inactive) | 6.15 µM (inactive) | 4.81 µM (inactive) | 3.48 µM (inactive) | 12.4 µM (inactive) | 8.69 µM (inactive) | 5.2 µM (inactive) | 6.73 µM (inactive)
C=CCN1C(=O)/C(=C\c2cc(C(C)(C)C)c(O)c(C(C)(C)C)c2)NC1=S | 48.2 µM (inactive) | 24 µM (inactive) | 21.1 µM (inactive) | 12.1 µM (inactive) | 0.879 µM (active) | 19.4 µM (inactive) | 36.6 µM (inactive) | 24.3 µM (inactive) | 39.5 µM (inactive) | 31.3 µM (inactive) | 25 µM (inactive) | 19.3 µM (inactive) | 34.1 µM (inactive) | 21.2 µM (inactive) | 7.87 µM (inactive) | 28.9 µM (inactive) | 14.2 µM (inactive) | 22.3 µM (inactive) | 41.9 µM (inactive) | 15.9 µM (inactive)
COc1c(C(=O)O)cccc1-c1cccc(C(=O)NCCN(CCNC(=O)c2cccc(-c3cccc(C(=O)O)c3OC)c2OC)CCNC(=O)c2cccc(-c3cccc(C(=O)O)c3OC)c2OC)c1OC | 28 µM (inactive) | 11.4 µM (inactive) | 10.7 µM (inactive) | 18.5 µM (inactive) | 35.2 µM (inactive) | 18.6 µM (inactive) | 39.8 µM (inactive) | 49.5 µM (inactive) | 37.2 µM (inactive) | 28.6 µM (inactive) | > 100 µM (inactive) | 60.5 µM (inactive) | 33 µM (inactive) | 40.5 µM (inactive) | 23.2 µM (inactive) | 67.1 µM (inactive) | 27.9 µM (inactive) | 51.6 µM (inactive) | 52 µM (inactive) | 4.84 µM (inactive)
Cc1coc2c1CC1OC1(C)CCC1OC1(C)C2 (stereo not given) | > 100 µM (inactive) | > 100 µM (inactive) | > 100 µM (inactive) | > 100 µM (inactive) | > 100 µM (inactive) | > 100 µM (inactive) | > 100 µM (inactive) | > 100 µM (inactive) | > 100 µM (inactive) | > 100 µM (inactive) | > 100 µM (inactive) | > 100 µM (inactive) | > 100 µM (inactive) | > 100 µM (inactive) | > 100 µM (inactive) | > 100 µM (inactive) | > 100 µM (inactive) | > 100 µM (inactive) | > 100 µM (inactive) | > 100 µM (inactive)
C[N+](C)(C)C(Cc1c[nH]c(=S)[nH]1)C(=O)O (stereo not given) | > 100 µM (inactive) | > 100 µM (inactive) | > 100 µM (inactive) | > 100 µM (inactive) | > 100 µM (inactive) | > 100 µM (inactive) | > 100 µM (inactive) | > 100 µM (inactive) | > 100 µM (inactive) | > 100 µM (inactive) | > 100 µM (inactive) | > 100 µM (inactive) | > 100 µM (inactive) | > 100 µM (inactive) | > 100 µM (inactive) | > 100 µM (inactive) | > 100 µM (inactive) | > 100 µM (inactive) | > 100 µM (inactive) | > 100 µM (inactive)
